Experiment [1] has as its system CTFR-bESCs. The experiment in a line: Feeder-free culture of CTFR-bESCs on Matrigel or Vitronectin. In kind it is cell-based, bovine. The note with it: medium supplemented with Activin-A (10 ng/mL), four passages. As for the experimental part:
FIG. 9. CTFR-bESCs can be cultured in feeder-free conditions. Brightfield images and immunostaining for pluripotency markers OCT4 and SOX2 of CTFR-bESCs cultured for four passages on mouse embryonic fibroblast (MEF) feeder (Control) or different extracellular matrices (Matrigel or Vitronectin) conditions, with or without the supplementation of Activin-A (10 ng/mL). Control: inactivated MEFs.
Culturing CTFR-bESCs in absence of feeder cells lead to cellular differentiation after a few passages.

Experiment [2] has as its system CTFR-bESCs. The experiment can be described thus: Routine maintenance and passaging of CTFR-bESCs. The experiment is classed as cell-based, bovine. The note with it: Y-27632, 10 μM. As for the experimental part: Once established, CTFR-bESC lines were grown at 37° C. and 5% CO2 on wells containing MEF and passaged every 4-5 days at a 1:10 split ratio. To increase cell survival, optionally, ROCK inhibitor (Y-27632, 10 μM) was added to the wells 1 h prior to passage and was also added to the newly prepared wells containing MEF and fresh culture media medium during 24 hrs. Media change was done daily between passages. ROCK inhibitor is dispensable for routine maintenance and passaging of CTFR-bESCs.

For a further experiment, the system named is bovine blastocysts. The experiment in a line: Derivation of CTFR-bESC lines from plated blastocysts/ICMs. In kind it is cell-based. The following applies: IWR1 not present in the culture medium. The protocol:
CTFR-bESCs derivation efficiency was measured as the percentage of embryos successfully establishing a CTFR-bESC line at passage 3 over the total number of embryos seeded. To optimize the CTFR-bESCs derivation efficiency, Applicants evaluated three different plating methods: whole blastocyst, mechanical isolation of the ICM by microdissection, and isolation of the ICM by immunosurgery. […] The initial outgrowths from the three methods were slightly different. The immunosurgery-derived outgrowths were smaller and more homogeneous in cell morphology than those from the other two methods.
Individual whole blastocysts or isolated ICMs were placed in separate wells of a 12-well dish seeded with a monolayer of gamma-irradiated mouse embryonic fibroblasts (MEF) and cultured in CTFR medium: a custom mTeSR-like basal medium (completely devoid of growth factors FGF2 and TGFβ) containing low fatty acid BSA (MP Biomedicals NZ), similar to basal medium in the published recipe([…]), and incubated at 37° C. and 5% CO2.
Thereafter, the media was changed daily. Outgrowths (after 6-7 days in culture) were dissociated and passaged using TrypLE (Gibco, 12563011) and re-seeded in the presence of Rho Kinase (ROCK) inhibitor (Y-27632, 10 μM) onto newly prepared wells containing MEF and fresh medium (FIG. 1).

For experiment [3], the system named is bovine embryonic stem cells. The experiment can be described thus: Immunostaining of pluripotency markers in bESCs grown with or without IWR1. The experiment is classed as cell-based. The note with it: withdrawal of IWR1 from the culture media; four passages. The protocol: FIG. 3: Inhibition of the canonical Wnt-signaling pathway is a requirement for self-renewal of pluripotent CTFR-bESCs. Immunostaining of the core pluripotency markers POU5F1 and SOX2 in bovine embryonic stem cells grown in medium supplemented with or devoid of IWR1 (+IWR1 and −IWR1, respectively). Cells were grown for four passages in the two conditions before immunofluorescence analysis. Scale bar 100 μm.
Individual whole blastocysts or isolated ICMs were placed in separate wells of a 12-well dish seeded with a monolayer of gamma-irradiated mouse embryonic fibroblasts (MEF) and cultured in CTFR medium: a custom mTeSR-like basal medium (completely devoid of growth factors FGF2 and TGFβ) containing low fatty acid BSA (MP Biomedicals NZ), similar to basal medium in the published recipe(45) supplemented with 20 ng/ml human FGF2 and 2.5 μM IWR1 (CTFR), and incubated at 37° C. and 5% CO2.
Once established, CTFR-bESC lines were grown at 37° C. and 5% CO2 on wells containing MEF and passaged every 4-5 days at a 1:10 split ratio. To increase cell survival, optionally, ROCK inhibitor (Y-27632, 10 μM) was added to the wells 1 h prior to passage and was also added to the newly prepared wells containing MEF and fresh culture media medium during 24 hrs. Media change was done daily between passages. ROCK inhibitor is dispensable for routine maintenance and passaging of CTFR-bESCs. […]

For the next experiment, the system named is bovine blastocyst. The following applies: added during in vitro pre-implantation development; cited from earlier work.
Another experiment relates to bovine embryos. The note with it: in vitro treatment from day 5 to day 7 after fertilization; cited from earlier work.

Consider five molecules from US12570956B2, “Efficient derivation of stable pluripotent bovine embryonic stem cells” (The Regents of the University of California, priority 2018, dated 2026).

“Also recorded” adds a separate entry of the source.

For the molecule “Activin-A: culture supplement used with an organic matrix to replace feeder cells”, the “propagation and pluripotency marker expression (OCT4, SOX2) without feeder cells” value in the experiment with CTFR-bESCs [1] was “allowed the propagation of the cells for multiple passages while maintaining expression of pluripotency markers; also recorded: maintained expression of pluripotency markers and a morphology consistent with CTFR-bESC”.

Consider `C[C@@H](N)[C@H]1CC[C@H](C(=O)Nc2ccncc2)CC1` [Y-27632], for which the “need for ROCK inhibitor in maintenance and passaging” value in the experiment with CTFR-bESCs [2] is reported as “dispensable”.

Consider `O=C(Nc1cccc2cccnc12)c1ccc(N2C(=O)[C@@H]3[C@H](C2=O)[C@@H]2C=C[C@H]3C2)cc1` [IWR1], for which the “establishment of bESC line” value in the experiment on bovine blastocysts is recorded as “no bESC lines could be established”. Also, the “pluripotency marker expression (POU5F1, SOX2)” value in experiment [3] is listed as “loss of pluripotency marker expression”.

Take `COc1cccc(-c2cc(NCc3ccc4c(c3)OCO4)nc(N)n2)c1` [AMBMP, 2-amino-4-(3,4-(methylenedioxy)benzylamino)-6-(3-methoxyphenyl)pyrimidine]: in the experiment on bovine blastocyst, the bovine blastocyst development entry is on record as “detrimental effects” and the “total number of cells in the ICM” value is given as “reduces”.

B1: DKK1: protein inhibitor of the canonical WNT-signaling pathway, naturally secreted by the female reproductive tract (protein, UniProt O94907 32-266, looked up)
Dickkopf-related protein 1: TLNSVLNSNAIKNLPPPLGGAAGHPGSAVSAAPGILYPGGNKYQTIDNYQPYPCAEDEECGTDEYCASPTRGGDAGVQICLACRKRRKRCMRHAMCCPGNYCKNGICVSSDQNHFRGEIEETITESFGNDHSTLDGYSRRTTLSSKMYHTKGQEGSVCLRSSDCASGLCCARHFWSKICKPVLKEGQVCTKHRRKGSHGLEIFQRCYCGEGLSCRIQKDHHQASNSSRLHTCQRH
On to B1, for which the “embryo survival after transfer to recipients” value in the experiment on bovine embryos is on record as “significantly improve”.
